Measurements published in US10894052B2, “Heterocyclic inhibitors of ATR kinase” (Board of Regents, The University of Texas System, priority 2018, dated 2021).
Where two headings read alike, the source gives them in different places.

Experiments:
ATR/ATRIP complex = ATR/ATRIP complex (Homo sapiens (Human), UniProt Q13535); experiment: ATR/ATRIP enzymatic assay (Caliper-based); format: biochemical; conditions: ATR/ATRIP enzyme; FAM-labeled RAD17 peptide, ATP
Protocol: (§1) The ability of the compounds of Formula I to inhibit the catalytic activity of the ATR/ATRIP complex was measured in a Caliper-based assay, and in HT-29 cells in an Alphascreen assay, following the ATR-mediated phosphorylation of CHK1, described below.
Human full-length FLAG-TEV-ATR and His6-ATRIP were co-expressed in HEK293 cells. […] The sample was loaded into a column, and then washed with buffer A three times. Protein was subsequently eluted with 2 ml of buffer B (buffer A+200 μg/ml 3×FLAG peptide).
The ability of new chemical matter to inhibit the ATR catalytic activity in this ATR/ATRIP complex was assessed using a Caliper-based assay. A 2× enzyme solution (i.e., 4 nM enzyme) was prepared using 1× Kinase Reaction Buffer (25 mM HEPES pH 8, 0.0055% Brij-35, 10 mM MnCl2, and 1 mM DTT). […] 10 μL of the 2× enzyme solution was transferred to an assay plate containing 60 nL of test compound (from a 3× serial dilution) in 100% DMSO. Following a 30-min incubation at 28° C., 10 μL of the 2× peptide solution was then transferred to the same assay plate. The reaction incubated at 28° C. for 6 h. After adding 30 μL stop buffer (100 mM HEPES pH 7.5, 0.015% Brij-35, 0.2% Coating-3 Reagent (PerkinElmer, catalog #PN760050), and 50 mM EDTA), data were collected on a Caliper instrument. Conversion values were converted to inhibition values via the following equation: % inhibition=(max−conversion)/(max−min)*100, wherein “max” corresponds to the DMSO control, and “min” corresponds to the low control. IC50 values were calculated using the following equation in XLFit: Y=Bottom+(Top−Bottom)/1+(IC50/X)^HillSlope).

[1] = tested on: ATR-driven phosphorylation of Chk1 kinase at Serine 345 in HT-29 cells; experiment: pCHK1 cellular assay (CHK1 p-Ser345 AlphaScreen SureFire); format: cell-based; conditions: HT-29 colorectal adenocarcinoma cells, 4-nitroquinoline N-oxide 12 μM, read-out: Cell IC50 (pCHK1)
Protocol: as §1
Cellular IC50 for the inhibitors of ATR described herein were measured in HT-29 colorectal adenocarcinoma cells.
The microplate was incubated overnight (approximately 20 hours) at 37° C. with 5% CO2 and ambient O2. Stock solutions of the test compounds were prepared in 100% DMSO (Sigma, Catalog #D2650) and serially diluted 1:3 using 100% DMSO. Compounds were additionally diluted 1:33 in culture medium, and 10 μL/well were transferred to the tissue culture plate. Following the compound addition, the microplate was incubated at 37° C. for 90 minutes. […] The cells were then washed with PBS and lysed using 10 μL/well […]® Kit lysis buffer diluted to 1× in water (PerkinElmer Catalog #TGRCHK1S50K), with mixing on an orbital shaker at 500 rpm for 20 min at room temperature. Lysates were frozen at −20 OC overnight.
The pCHK1 ALPHASCREEN® signal was measured using an ENVISION® plate reader (PerkinElmer). IC50 values were calculated using a four-parameter logistic curve fit using Genedata Screener software. Percent of control for each compound concentration was calculated by the following formula: 100*(Compound−Min)/(Max−Min), where “Max” is the high control, DMSO, and “Min” is the low control, 5 μM ATR inhibitor.

Sequence of ATR/ATRIP complex (Q13535 whole entry): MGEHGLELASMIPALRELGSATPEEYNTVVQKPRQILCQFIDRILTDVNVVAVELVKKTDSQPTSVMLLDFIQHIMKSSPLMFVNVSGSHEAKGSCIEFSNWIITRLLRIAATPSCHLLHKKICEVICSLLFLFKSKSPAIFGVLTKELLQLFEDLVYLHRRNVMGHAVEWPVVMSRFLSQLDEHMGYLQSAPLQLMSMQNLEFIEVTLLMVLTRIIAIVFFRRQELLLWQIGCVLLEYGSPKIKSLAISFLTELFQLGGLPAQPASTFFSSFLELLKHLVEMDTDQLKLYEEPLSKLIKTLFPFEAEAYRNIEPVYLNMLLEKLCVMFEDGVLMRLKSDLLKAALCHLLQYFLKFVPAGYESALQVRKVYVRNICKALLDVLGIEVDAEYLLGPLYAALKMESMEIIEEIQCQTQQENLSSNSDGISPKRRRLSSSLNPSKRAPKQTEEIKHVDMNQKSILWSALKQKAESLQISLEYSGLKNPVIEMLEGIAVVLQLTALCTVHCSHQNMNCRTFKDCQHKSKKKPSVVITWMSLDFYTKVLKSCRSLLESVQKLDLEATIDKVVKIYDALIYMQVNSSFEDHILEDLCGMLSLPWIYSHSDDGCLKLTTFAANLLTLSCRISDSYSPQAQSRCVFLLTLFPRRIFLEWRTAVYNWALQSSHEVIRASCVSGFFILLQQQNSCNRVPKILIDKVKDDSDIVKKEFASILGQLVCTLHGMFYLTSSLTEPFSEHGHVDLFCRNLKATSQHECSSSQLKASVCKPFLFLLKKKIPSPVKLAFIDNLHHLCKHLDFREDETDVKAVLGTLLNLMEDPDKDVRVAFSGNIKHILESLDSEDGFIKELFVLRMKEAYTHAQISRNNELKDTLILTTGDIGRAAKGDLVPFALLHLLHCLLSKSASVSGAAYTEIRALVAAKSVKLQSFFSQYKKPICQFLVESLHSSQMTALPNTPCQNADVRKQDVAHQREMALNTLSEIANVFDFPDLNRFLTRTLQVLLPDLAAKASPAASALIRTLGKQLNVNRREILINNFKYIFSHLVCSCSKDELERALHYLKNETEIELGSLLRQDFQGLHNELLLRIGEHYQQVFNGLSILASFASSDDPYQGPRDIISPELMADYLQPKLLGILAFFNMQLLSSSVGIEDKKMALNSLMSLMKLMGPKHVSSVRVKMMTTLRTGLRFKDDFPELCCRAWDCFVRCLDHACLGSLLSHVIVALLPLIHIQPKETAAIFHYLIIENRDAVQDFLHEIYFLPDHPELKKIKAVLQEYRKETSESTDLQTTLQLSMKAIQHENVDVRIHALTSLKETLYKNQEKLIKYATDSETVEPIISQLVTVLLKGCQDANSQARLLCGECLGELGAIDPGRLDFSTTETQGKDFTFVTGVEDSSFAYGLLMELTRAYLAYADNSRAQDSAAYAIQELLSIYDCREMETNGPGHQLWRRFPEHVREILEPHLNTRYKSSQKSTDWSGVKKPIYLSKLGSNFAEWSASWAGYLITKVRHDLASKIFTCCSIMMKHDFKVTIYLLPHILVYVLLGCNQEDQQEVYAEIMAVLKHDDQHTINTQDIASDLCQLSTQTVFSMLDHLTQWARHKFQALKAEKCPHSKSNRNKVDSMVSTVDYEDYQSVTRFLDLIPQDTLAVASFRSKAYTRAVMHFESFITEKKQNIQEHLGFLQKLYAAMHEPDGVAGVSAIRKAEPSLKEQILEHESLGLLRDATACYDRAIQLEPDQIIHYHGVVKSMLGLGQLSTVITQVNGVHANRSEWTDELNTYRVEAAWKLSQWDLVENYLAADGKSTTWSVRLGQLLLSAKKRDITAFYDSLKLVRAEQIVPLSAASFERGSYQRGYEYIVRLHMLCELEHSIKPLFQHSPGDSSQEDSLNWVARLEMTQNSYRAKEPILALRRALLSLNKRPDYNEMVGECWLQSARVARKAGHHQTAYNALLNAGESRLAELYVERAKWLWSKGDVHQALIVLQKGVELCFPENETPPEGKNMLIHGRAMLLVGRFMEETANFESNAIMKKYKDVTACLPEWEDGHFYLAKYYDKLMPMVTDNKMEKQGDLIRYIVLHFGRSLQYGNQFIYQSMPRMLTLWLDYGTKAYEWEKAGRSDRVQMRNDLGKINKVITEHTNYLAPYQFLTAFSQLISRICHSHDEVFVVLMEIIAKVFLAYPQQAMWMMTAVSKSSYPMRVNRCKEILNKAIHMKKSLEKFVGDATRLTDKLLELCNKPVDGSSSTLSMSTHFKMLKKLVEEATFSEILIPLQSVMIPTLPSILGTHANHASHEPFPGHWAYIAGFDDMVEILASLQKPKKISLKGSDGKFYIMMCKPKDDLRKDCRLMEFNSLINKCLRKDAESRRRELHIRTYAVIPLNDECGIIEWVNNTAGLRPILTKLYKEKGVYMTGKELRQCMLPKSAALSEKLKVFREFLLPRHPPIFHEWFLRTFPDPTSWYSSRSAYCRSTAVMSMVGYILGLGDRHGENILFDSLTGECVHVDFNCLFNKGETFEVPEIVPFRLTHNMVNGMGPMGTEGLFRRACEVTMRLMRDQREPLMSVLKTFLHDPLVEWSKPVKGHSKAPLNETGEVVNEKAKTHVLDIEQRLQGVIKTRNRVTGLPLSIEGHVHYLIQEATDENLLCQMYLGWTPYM
Sequence of ATR/ATRIP complex (Q8WXE1 whole entry partner): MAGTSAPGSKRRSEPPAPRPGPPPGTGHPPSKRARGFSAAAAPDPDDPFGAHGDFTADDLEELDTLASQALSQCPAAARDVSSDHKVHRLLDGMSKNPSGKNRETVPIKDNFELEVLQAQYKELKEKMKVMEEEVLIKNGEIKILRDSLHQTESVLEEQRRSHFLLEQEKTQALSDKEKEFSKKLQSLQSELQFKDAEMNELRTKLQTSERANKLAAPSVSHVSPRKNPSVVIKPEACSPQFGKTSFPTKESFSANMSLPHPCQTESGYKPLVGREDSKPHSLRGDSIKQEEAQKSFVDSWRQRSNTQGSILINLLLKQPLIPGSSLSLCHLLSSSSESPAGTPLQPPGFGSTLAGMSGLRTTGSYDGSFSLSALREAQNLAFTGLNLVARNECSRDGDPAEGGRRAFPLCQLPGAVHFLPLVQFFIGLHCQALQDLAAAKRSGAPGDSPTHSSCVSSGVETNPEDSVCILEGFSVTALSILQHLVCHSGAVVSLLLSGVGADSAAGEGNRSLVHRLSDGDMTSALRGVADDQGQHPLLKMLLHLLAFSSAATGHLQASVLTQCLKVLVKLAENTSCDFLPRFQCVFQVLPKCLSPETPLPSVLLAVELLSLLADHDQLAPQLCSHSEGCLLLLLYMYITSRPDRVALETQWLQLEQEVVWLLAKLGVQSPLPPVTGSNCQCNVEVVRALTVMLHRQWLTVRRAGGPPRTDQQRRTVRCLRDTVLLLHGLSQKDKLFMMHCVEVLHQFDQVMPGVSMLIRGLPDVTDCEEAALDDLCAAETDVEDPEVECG

Row | SMILES | IC50 (ATR/ATRIP complex) | IC50 ([1]; Homo sapiens) | IC50 [1]
1 | C[C@@H]1COCCN1c1cc(N=S(C)(C)=O)nc(-c2ccnc3[nH]cnc23)c1 [Example 2, (R)-((6-(3H-Imidazo[4,5-b]pyridin-7-yl)-4-(3-methylmorpholino)pyridin-2-yl)imino)dimethyl-λ^6-sulfanone] | 118 nM | 804 nM | 
2 | Cc1nc2cccnc2n1-c1cc(N2CCOC[C@H]2C)cc(N=S(C)(C)=O)n1 [Example 4, (R)-Dimethyl((6-(2-methyl-3H-imidazo[4,5-b]pyridin-3-yl)-4-(3-methylmorpholino)pyridin-2-yl)imino)-λ^6-sulfanone] | 986 nM | 10000 nM | 
3 | C[C@@H]1COCCN1c1cc(N=S(C)(C)=O)nc(-n2cnc3cccnc32)c1 [Example 5, (R)-((6-(3H-Imidazo[4,5-b]pyridin-3-yl)-4-(3-methylmorpholino)pyridin-2-yl)imino)dimethyl-λ^6-sulfanone] | 44 nM | 10000 nM | 
4 | C[C@@H]1COCCN1c1cc(N=S(C)(C)=O)nc(-n2c(C(F)F)nc3ccccc32)c1 [Example 6, (R)-((6-(2-(Difluoromethyl)-1H-benzo[d]imidazol-1-yl)-4-(3-methylmorpholino)pyridin-2-yl)imino)dimethyl-λ^6-sulfanone] | 5 nM | 2320 nM | 
5 | C[C@@H]1COCCN1c1cc(N=S(C)(C)=O)nc(-n2c(CO)nc3ccccc32)c1 [Example 7, (R)-((6-(2-(Hydroxymethyl)-1H-benzo[d]imidazol-1-yl)-4-(3-methylmorpholino)pyridin-2-yl)imino)dimethyl-λ^6-sulfanone] | 16 nM | 8620 nM | 
6 | C[C@@H]1COCCN1c1cc(N=S(C)(C)=O)nc(-n2c(CF)nc3ccccc32)c1 [Example 8, (R)-((6-(2-(Fluoromethyl)-1H-benzo[d]imidazol-1-yl)-4-(3-methylmorpholino)pyridin-2-yl)imino)dimethyl-λ^6-sulfanone] | 5 nM | 3330 nM | 
7 | C[C@@H]1COCCN1c1cc(N=S(C)(C)=O)nc(-n2c(N)nc3ccccc32)c1 [Example 9, (R)-((6-(2-Amino-1H-benzo[d]imidazol-1-yl)-4-(3-methylmorpholino)pyridin-2-yl)imino)dimethyl-λ^6-sulfanone] | 1 nM | 159 nM | 
8 | CNc1nc2ccccc2n1-c1cc(N2CCOC[C@H]2C)cc(N=S(C)(C)=O)n1 [Example 10, (R)-Dimethyl((6-(2-(methylamino)-1H-benzo[d]imidazol-1-yl)-4-(3-methylmorpholino)pyridin-2-yl)imino)-λ^6-sulfanone] | 1 nM | 35 nM | 
9 | C[C@@H]1COCCN1c1cc(N=S(C)(C)=O)nc(-n2cnc3ccccc32)c1 [Example 11, (R)-((6-(1H-benzo[d]imidazol-1-yl)-4-(3-methylmorpholino)pyridin-2-yl)imino)dimethyl-λ^6-sulfanone] | 9 nM | 3160 nM | 
10 | Cc1cc2c(-c3cc(N4CCOC[C@H]4C)cc(N=S(C)(C)=O)n3)ccnc2[nH]1 [Example 12, (R)-dimethyl((6-(2-methyl-1H-pyrrolo[2,3-b]pyridin-4-yl)-4-(3-methylmorpholino)pyridin-2-yl)imino)-λ^6-sulfanone] | 11 nM | 99 nM | 
11 | C[C@@H]1COCCN1c1cc(N=S(C)(C)=O)nc(-c2cncc3[nH]ccc23)c1 [Example 13, (R)-dimethyl((4-(3-methylmorpholino)-6-(1H-pyrrolo[2,3-c]pyridin-4-yl)pyridin-2-yl)imino)-λ^6-sulfanone] | 9 nM | 232 nM | 
12 | COc1cc(-c2cc(N3CCOC[C@H]3C)cc(N=S(C)(C)=O)n2)c2cc[nH]c2n1 [Example 14, (R)-((6-(6-methoxy-1H-pyrrolo[2,3-b]pyridin-4-yl)-4-(3-methylmorpholino)pyridin-2-yl)imino)dimethyl-λ^6-sulfanone] | 48 nM | 3650 nM | 
13 | C[C@@H]1COCCN1c1cc(N=S(C)(C)=O)nc(-c2ccnc(N)c2)c1 [Example 15, (R)-((2′-amino-4-(3-methylmorpholino)-[2,4′-bipyridin]-6-yl)imino)dimethyl-λ^6-sulfanone] | 372 nM | 875 nM | 
14 | C[C@@H]1COCCN1c1cc(N=S(C)(=O)C2COC2)nc(-c2ccnc3[nH]ccc23)c1 (stereo partly drawn) [Example 17, methyl((4-((R)-3-methylmorpholino)-6-(1H-pyrrolo[2,3-b]pyridin-4-yl)pyridin-2-yl)imino)(oxetan-3-yl)-λ^6-sulfanone] | 12 nM | 638 nM | 
15 | CCOc1cc(-c2cc(N3CCOC[C@H]3C)cc(N=S(C)(C)=O)n2)c2cc[nH]c2n1 [Example 18, (R)-((6-(6-ethoxy-1H-pyrrolo[2,3-b]pyridin-4-yl)-4-(3-methylmorpholino)pyridin-2-yl)imino)dimethyl-λ^6-sulfanone] | 29 nM | 470 nM | 
16 | CCOc1cc(-c2cc(N3CCOC[C@@H]3C)cc(N=S(C)(C)=O)n2)c2cc[nH]c2n1 [Example 19] | 4 nM |  | 195 nM
17 | C[C@@H]1COCCN1c1cc(N=S(C)(C)=O)nc(-c2cccc3[nH]ccc23)c1 [Example 20, (R)-((6-(1H-indol-4-yl)-4-(3-methylmorpholino)pyridin-2-yl)imino)dimethyl-λ^6-sulfanone] | 12 nM | 364 nM | 
18 | C[C@@H]1COCCN1c1cc(N=S(C)(=O)C2CC2)nc(-c2cncc3[nH]ccc23)c1 (stereo partly drawn) [Example 21, cyclopropyl(methyl)((4-((R)-3-methylmorpholino)-6-(1H-pyrrolo[2,3-c]pyridin-4-yl)pyridin-2-yl)imino)-λ^6-sulfanone] | 9 nM | 110 nM | 
19 | C[C@@H]1COCCN1c1cc(N=S(C)(=O)C2CC2)nc(-c2cncc3[nH]ccc23)c1 (stereo partly drawn) [Example 22] | 6 nM |  | 282 nM
20 | C[C@@H]1COCCN1c1cc(N=S(C)(C)=O)nc(-c2cccc3[nH]cnc23)c1 [Example 23, (R)-((6-(1H-benzo[d]imidazol-4-yl)-4-(3-methylmorpholino)pyridin-2-yl)imino)dimethyl-λ^6-sulfanone] | 8 nM | 467 nM | 
21 | C[C@@H]1COCCN1c1cc(N=S(C)(=O)C2COC2)nc(-c2cncc3[nH]ccc23)c1 (stereo partly drawn) [Example 24, methyl((4-((R)-3-methylmorpholino)-6-(1H-pyrrolo[2,3-c]pyridin-4-yl)pyridin-2-yl)imino)(oxetan-3-yl)-λ^6-sulfanone] | 24 nM | 470 nM | 
22 | C[C@@H]1COCCN1c1cc(N=S2(=O)CCC2)nc(-c2ccnc3[nH]ccc23)c1 [Example 25, (R)-1-((4-(3-methylmorpholino)-6-(1H-pyrrolo[2,3-b]pyridin-4-yl)pyridin-2-yl)imino)-1-λ^6-thietane 1-oxide] | 9 nM | 767 nM | 
23 | C[C@@H]1COCCN1c1cc(N=S(C)(C)=O)nc(-c2cncn2C)c1 [Example 35, (R)-dimethyl((6-(1-methyl-1H-imidazol-5-yl)-4-(3-methylmorpholino)pyridin-2-yl)imino)-λ^6-sulfanone] |  | 9620 nM | 
24 | C[C@@H]1COCCN1c1cc(N=S(C)(C)=O)nc(-c2cn[nH]c2)c1 [Example 36, (R)-dimethyl((4-(3-methylmorpholino)-6-(1H-pyrazol-4-yl)pyridin-2-yl)imino)-λ^6-sulfanone] |  | 5560 nM | 
25 | C[C@@H]1COCCN1c1cc(N=S(C)(C)=O)nc(-c2cc[nH]n2)c1 [Example 37, (R)-dimethyl((4-(3-methylmorpholino)-6-(1H-pyrazol-3-yl)pyridin-2-yl)imino)-λ^6-sulfanone] |  | 8210 nM | 
26 | C[C@@H]1COCCN1c1cc(N=S(C)(C)=O)nc(-c2ccn(C)n2)c1 [Example 38, (R)-dimethyl((6-(1-methyl-1H-pyrazol-3-yl)-4-(3-methylmorpholino)pyridin-2-yl)imino)-λ^6-sulfanone] |  | 10000 nM | 
